# According to ChEMBL document CHEMBL3045760, “Bioactive xanthones with effect on P-glycoprotein and prediction of intestinal absorption” (Med Chem Res, 2013):
# Calls of active or inactive are those of the source. The rule behind the calls is not given here.
# Legend:
# [1] = molecular target: T1, ATP-dependent translocase ABCB1 (Homo sapiens, UniProt P08183); assay: Inhibition of P-glycoprotein in doxorubicin-resistant Homo sapiens (human) K562 cells overexpressing P-gp assessed as increase in intracellular Rh123 accumulation at 10 to 20 uM after 1 hr by flow cytometric analysis; type: cell-based; details: k562, 1 h
# [2] = Apparent permeability from apical to basolateral side of Homo sapiens (human) Caco2 cells at 100 uM by HPLC-UV analysis; type: ADME, cell-based; details: Caco-2
# Caco-2 = assay: (§1) Drug recovery in Homo sapiens (human) Caco2 cells at 100 uM by HPLC-UV analysis; type: ADME, cell-based; details: caco-2, 100 µM
# Homo sapiens = species on record: Homo sapiens; assay: Non-competitive inhibition of Homo sapiens (human) P-glycoprotein ATPase activity at 200 uM after 40 min by luminescence analysis
# [3] = as §1; type: ADME, cell-based, Caco-2; details: Caco-2, read-out: Drug recovery
# [4] = molecular target: T1, ATP-dependent translocase ABCB1; assay: Activation of P-glycoprotein in doxorubicin-resistant Homo sapiens (human) K562 cells overexpressing P-gp assessed as decrease in intracellular Rh123 accumulation at 10 to 20 uM after 1 hr by flow cytometric analysis; type: cell-based; details: k562, 1 h
# T1 sequence (P08183 whole entry): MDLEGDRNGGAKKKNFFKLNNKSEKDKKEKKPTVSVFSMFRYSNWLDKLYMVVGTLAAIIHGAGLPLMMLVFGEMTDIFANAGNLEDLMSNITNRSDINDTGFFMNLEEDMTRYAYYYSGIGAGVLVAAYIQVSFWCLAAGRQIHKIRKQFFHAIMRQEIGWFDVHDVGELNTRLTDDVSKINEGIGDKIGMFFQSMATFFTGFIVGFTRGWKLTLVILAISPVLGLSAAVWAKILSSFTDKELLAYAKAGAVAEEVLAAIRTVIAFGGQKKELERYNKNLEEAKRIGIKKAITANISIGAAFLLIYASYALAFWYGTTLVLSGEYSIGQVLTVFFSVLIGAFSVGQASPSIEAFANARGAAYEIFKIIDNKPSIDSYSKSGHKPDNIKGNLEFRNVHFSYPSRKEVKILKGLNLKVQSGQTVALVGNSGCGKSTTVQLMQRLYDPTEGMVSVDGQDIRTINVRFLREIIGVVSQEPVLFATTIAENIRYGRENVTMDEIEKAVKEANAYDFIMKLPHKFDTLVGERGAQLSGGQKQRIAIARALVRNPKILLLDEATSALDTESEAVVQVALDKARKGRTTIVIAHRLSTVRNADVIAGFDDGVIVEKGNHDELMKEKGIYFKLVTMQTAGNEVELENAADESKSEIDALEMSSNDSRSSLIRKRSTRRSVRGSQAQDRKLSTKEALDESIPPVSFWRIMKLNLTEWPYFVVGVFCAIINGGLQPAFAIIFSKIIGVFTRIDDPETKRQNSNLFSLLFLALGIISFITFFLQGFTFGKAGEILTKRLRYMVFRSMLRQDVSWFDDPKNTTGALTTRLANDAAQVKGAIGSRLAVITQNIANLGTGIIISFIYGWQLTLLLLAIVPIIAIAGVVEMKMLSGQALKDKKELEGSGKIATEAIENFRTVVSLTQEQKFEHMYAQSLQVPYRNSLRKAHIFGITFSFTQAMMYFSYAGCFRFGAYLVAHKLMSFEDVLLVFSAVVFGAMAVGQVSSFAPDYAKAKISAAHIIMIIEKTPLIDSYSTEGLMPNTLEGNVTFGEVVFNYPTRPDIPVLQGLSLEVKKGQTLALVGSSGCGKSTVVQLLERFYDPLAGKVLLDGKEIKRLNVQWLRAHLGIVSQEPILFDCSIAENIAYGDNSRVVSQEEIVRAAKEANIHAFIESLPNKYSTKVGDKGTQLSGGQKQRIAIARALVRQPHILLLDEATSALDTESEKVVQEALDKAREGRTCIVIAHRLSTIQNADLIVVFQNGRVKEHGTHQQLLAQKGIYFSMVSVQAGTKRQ
inhibition (INH) [1],Papp A→B at 100 µM [2],Drug recovery (Caco-2),inhibition (Homo sapiens),recovery at 100 µM [3],Activity [4],SMILES
Active,14.4 ×10⁻⁶ cm/s,164.7%,Active,,,COc1cc(C2Oc3ccc4c(=O)c5ccccc5oc4c3OC2CO)ccc1O (stereo not given)
Active,,,,,,COc1ccc(CCN(C)CCCC(C#N)(c2ccc(OC)c(OC)c2)C(C)C)cc1OC (stereo not given)
,15.2 ×10⁻⁶ cm/s,,,40.7%,Active,O=c1c2ccccc2oc2ccc(O)c(O)c12
Active,14.2 ×10⁻⁶ cm/s,,Active,29.4%,,CC1(C)CCc2cc3c(=O)c4ccccc4oc3c(O)c2O1
,19.4 ×10⁻⁶ cm/s,,,53.6%,Active,"O=c1c2ccccc2oc2c(O)c(O)ccc12 [3,4-DIHYDROXYXANTHONE]"
